Reference: ChEMBL document CHEMBL1201862, “PubChem BioAssay data set” (2004)
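Interpolation was linear, between the two tested concentrations surrounding the appropriate level; five concentrations were tested over 48 hours in 96-well plates. Here, GI50 denotes the concentration required for 50% inhibition of growth.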 The source made the active and inactive calls. Cut-off read from the data, not from the text of the source: active = GI50 up to about 1.1 µM and inactive = higher.

How the values were obtained:
Assay in all cases: NCI tumour cell line growth inhibition, 48 h
[1] = test system: NCI-H226
[2] = test system: HCC 2998
[3] = test system: Malme-3M
[4] = test system: LOX IMVI
[5] = test system: NCI/ADR-RES
[6] = test system: MDA-MB-231
[7] = test system: SNB-19
[8] = test system: MOLT-4
[9] = test system: SK-MEL-5
[10] = test system: CCRF-CEM
[11] = test system: MDA-MB-435
[12] = test system: SK-MEL-28
[13] = test system: HT-29
[14] = test system: A549
[15] = test system: TK-10
[16] = test system: NCI-H460
[17] = test system: UO-31
[18] = test system: MCF7
[19] = test system: HL-60
[20] = test system: OVCAR-5

Measured: GI50

COc1cc(/C=C/C(=O)Oc2ccc(NC(C)=O)cc2)ccc1C(=O)OCc1ccccc1
inactive: [1] > 100 µM | [2] > 100 µM | [3] > 93.5 µM | [4] 67.8 µM | [5] > 100 µM | [6] > 100 µM | [7] 52.7 µM | [8] > 85.3 µM | [9] > 100 µM | [10] 64.3 µM | [11] > 100 µM | [12] > 100 µM | [13] > 100 µM | [14] > 97.1 µM | [15] > 95.9 µM | [16] > 73.1 µM | [17] > 100 µM | [18] > 86.5 µM | [19] > 72.3 µM | [20] > 100 µM
